Test results from PMC11355195 (Life, 2024).
Converted amounts (≈) assume the structure as drawn.

What was measured:
[1] = DPPH scavenging capacity; settings: 0.1 mM DPPH
Protocol: The method utilized to test the compound’s efficacy in scavenging DPPH radicals was based on protocols detailed in references, with minor changes. The test was completed in duplicate for each concentration. A solution of 0.1 mM DPPH (2,2-diphenyl-1-picrylhydrazyl) was produced, and the compounds were evaluated at different concentrations ranging from 1 to 500 µg/mL. Ascorbic acid served as the positive control with concentrations ranging from 0.01 to 300 µg/mL [35].

[2] = system: peripheral blood mononuclear cells (PBMC); experiment: MTT cell viability, PBMC (normal cell control); assay type: cell-based; settings: PBMC, MTT test, 72 h of treatment (Figure 3), read-out: IC50 Value ± SD, PBMC
Protocol: This approach determines cell viability based on the ability of living cells to decrease MTT to a purple, water-insoluble formazan product. Cells were planted in 96-well plates at a density of 1 × 10^4 cells per well in 100 μL of complete culture media, which provides all necessary nutrients for cell growth. […] The cells were then treated with the compounds for 24, 48, and 72 h to determine the effect on cell viability over varied time intervals. Following each incubation time, 20 μL of MTT solution (at a concentration of 5 mg/mL in PBS) were applied to each well. The plates were further incubated for 4 h at 37 °C, during which time live cells decrease the MTT to formazan, creating purple crystals. At the end of the incubation, the medium containing the MTT was carefully aspirated, leaving only the formazan crystals in the bottom of the wells. To dissolve these crystals, 100 μL of DMSO were administered to each well. […] This formula quantifies the reduction in cell viability in response to the treatments compared to the control. […] Cisplatin, a known anticancer drug, was used as a reference drug at varying concentrations from 0.01 to 50 µg/mL.

[3] = ABTS scavenging activity
Description: With a few minor adjustments, the procedure published by Re et al., was used to evaluate the test samples’ capacity to scavenge radicals against the ABTS (2,2′-azinobis-3-ethylbenzothiazoline-6-sulphonate) radical cation.

[4] = Oxygen radical absorbance capacity (ORAC); settings: Trolox equivalents
Protocol: The ORAC (Oxygen Radical Absorbance Capacity) test was carried out using a modified version of the procedure reported by Huang et al.. This test examines the antioxidant capacity of compounds by examining their ability to neutralize oxygen radicals. The method was carried out utilizing a 96-well microplate format. First, 150 µL of fluorescein solution, produced as 8 × 10^−8 M fluorescein in 0.075 M phosphate buffer (pH 7.4), were dispersed to each well. Fluorescein is a fluorescent probe whose fluorescence lowers when it reacts with radicals. Next, 25 µL of the substance or mixture to be evaluated was added to the corresponding wells. Wells containing 25 µL of phosphate buffer served as blanks, and wells containing 25 µL of Trolox solution (from 10 to 100 µm) were utilized as standards. Control wells containing 50 µL phosphate buffer without any radicals were also added to provide a baseline. The reaction was initiated by adding 25 µL of a freshly produced solution of AAPH (2,2′-azobis(2-methylpropionamidine) dihydrochloride) at a concentration of 165.94 mM in phosphate buffer to each well, except for the control wells, at a temperature of 37 °C. AAPH creates peroxyl radicals that induce oxidative stress in the fluorescein solution, simulating free-radical attack. […] The fluorescence in-tensity of the mixture was then monitored at regular intervals for 120 min.

[5] = target: T1, 5-LOX (Glycine max, UniProt P08170); experiment: 5-Lipoxygenase (5-LOX) inhibition
T1 sequence (P08170 1-839): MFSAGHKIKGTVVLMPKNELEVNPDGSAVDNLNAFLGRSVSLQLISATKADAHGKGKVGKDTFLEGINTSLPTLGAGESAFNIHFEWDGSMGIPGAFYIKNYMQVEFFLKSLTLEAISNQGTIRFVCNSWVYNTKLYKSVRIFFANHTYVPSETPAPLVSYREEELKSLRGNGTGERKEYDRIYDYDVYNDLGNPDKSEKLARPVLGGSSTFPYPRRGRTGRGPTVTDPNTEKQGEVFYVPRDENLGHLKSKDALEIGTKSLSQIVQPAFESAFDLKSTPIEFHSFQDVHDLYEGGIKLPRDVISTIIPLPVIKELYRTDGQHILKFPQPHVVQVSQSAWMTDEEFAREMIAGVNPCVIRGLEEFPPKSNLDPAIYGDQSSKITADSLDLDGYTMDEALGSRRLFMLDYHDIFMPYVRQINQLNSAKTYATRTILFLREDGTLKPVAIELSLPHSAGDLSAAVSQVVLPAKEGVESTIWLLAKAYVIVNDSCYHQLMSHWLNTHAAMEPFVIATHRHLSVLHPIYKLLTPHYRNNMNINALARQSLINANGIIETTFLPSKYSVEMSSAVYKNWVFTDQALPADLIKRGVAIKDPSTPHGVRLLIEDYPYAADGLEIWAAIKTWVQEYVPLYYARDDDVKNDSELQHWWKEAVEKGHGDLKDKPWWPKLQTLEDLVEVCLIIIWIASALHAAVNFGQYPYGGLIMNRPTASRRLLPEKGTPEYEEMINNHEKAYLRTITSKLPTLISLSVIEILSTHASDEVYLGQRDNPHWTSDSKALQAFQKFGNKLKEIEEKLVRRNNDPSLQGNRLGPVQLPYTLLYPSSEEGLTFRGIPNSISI
Description: The % inhibition of hydrogen peroxide formation, an indication of lipoxygenase inhibitory action, was computed according to the formula: Inhibition percentage%=Acontrol−Ablank−Asample−Ablank/Acontrol−Ablank where Acontrol, Ablank and ASample represent the absorbances of the control well, blank, and test sample, respectively.

With Cc1ccc(C(C)C)c(O)c1 [Thymol, 2-isopropyl-5-methylphenol] the “DPPH Scavenging Capacity IC50” value [1] was 161.02 ± 6.89 µg/mL, the IC50 [2] was 307 ± 3.48 µg/mL (≈ 2050 µM) and the “ABTS Scavenging Activity IC50” value [3] was 125.31 ± 6.25 µg/mL. The “Oxygen Radical Absorbance Capacity” value [4] was 2.341 ± 0.009 mmol TE/g and the IC50 [5] was 308 µM.
